Assay [1] relates to right atrial muscle. Briefly: Test Method 1: enhancing rate of the pulsation of the right atrial muscle extirpated from a guinea pig. To be noted: minus values: pulsation is decreased. Type of assay: cell-based. How it is done: (§1) The drug according to the present invention was evaluated with reference to the physiological activities by means of a method using an atrial muscle extirpated from a guinea pig.
(§2) Male guinea pigs having a body weight of 300-500 g were made swooned by striking his head and were bleeded to death. The heart was extirpated and the right and left atrial muscles were cut off. The tops of each atrial muscle were fixed with cerrefines. The muscle was suspended into an organ-bath in which a Krebs-Henseleit solution (at 32° C.) was filled, and a 95% O2 -5% CO2 gas was flown through the bath. The left atrial muscle was stimulated electrically at a frequency of 1 Hz to stabilize the contracting force of the left atrial muscle. Then, the compounds according to the present invention represented by the general formulae were added to the organ-bath. As for the right atrial muscle, after the pulsation was stabilized, the compounds according to the present invention were added in the organ-bath in the same manner as described above.
(§3) The compounds according to the present invention represented by the aforementioned general formulae enhanced the left atrial muscle contracting force dependent on their concentrations. The drug concentrations for enhancing the left atrial muscle contracting force to the levels of 20%, 50% and 100%, respectively are listed in Table 2. EC20, EC50 and EC100 indicate the molar concentration for enhancing the left atrial muscle contracting force to the levels of 20%, 50% and 100%, respectively. The enhancing rates of the pulsation of the right atrial muscle are also listed within parentheses. The minus values in parentheses indicate that the pulsation of the right atrial muscle is decreased.
(§4) As a control drug, theophylline ([…].

Assay [2] concerns left atrial muscle. Briefly: Test Method 1: enhancement of contracting force of left atrial muscle extirpated from a guinea pig (electrically stimulated at 1 Hz). Type of assay: cell-based. To be noted: Cavia porcellus, Krebs-Henseleit solution 32° C.; for EC20: read-out: EC20 (molar concentration for enhancing the left atrial muscle contracting force to the level of 20%); for EC50: read-out: EC50 (molar concentration for enhancing the left atrial muscle contracting force to the level of 50%); for EC100: read-out: EC100 (molar concentration for enhancing the left atrial muscle contracting force to the level of 100%). How it is done:
as §1, §2, §3, §4

Each structure is given as a SMILES string.

Consider `CCOC(=O)c1cn(CC)c2cc(OCC)c(OC)cc2c1=O` [Compound 34, 7-ethoxy-3-ethoxycarbonyl-1-ethyl-6-methoxy-4(1H)-quinolone], for which, in assay [1], the “enhancing rate of the pulsation of the right atrial muscle (in parentheses under EC20)” value (shortened to “enhancing rate … (in parentheses under EC20)”) is on record as -3.2% and the “enhancing rate of the pulsation of the right atrial muscle (in parentheses under EC50)” value (“enhancing rate … (in parentheses under EC50)” below) is -8.5%. Moreover, in assay [2], the EC20 was determined as 6.46 µM and the EC50 came out at 100 µM.

Consider `CCOC(=O)c1c[nH]c2c(OC)cccc2c1=O` [Compound 35, 3-ethoxycarbonyl-8-methoxy-4(1H)-quinolone], for which, in assay [1], the “enhancing rate … (in parentheses under EC20)” value is -1.2%, the “enhancing rate of the pulsation of the right atrial muscle (in parentheses under EC100)” value (“enhancing rate … (in parentheses under EC100)” for short) was -3.7% and the “enhancing rate … (in parentheses under EC50)” value is -2.0%. For the same molecule, in assay [2], the EC20 came to 26 µM, the EC50 was 80 µM and the EC100 came out at 260 µM.

For `CCOC(=O)c1cn(CC)c2c(OC)cc(S(C)(=O)=O)cc2c1=O` [Compound 40, 3-ethoxycarbonyl-1-ethyl-8-methoxy-6-methylsulfonyl-4(1H)-quinolone], in assay [1], the “enhancing rate … (in parentheses under EC20)” value was -4.5% and the “enhancing rate … (in parentheses under EC50)” value was -16.0%. In addition, in assay [2], the EC20 was 4.57 µM and the EC50 came out at 36.3 µM.

On to `CCOC(=O)c1c[nH]c2c(C)cc(N(CC)CC)cc2c1=O` [Compound 84, 6-diethylamino-3-ethoxycarbonyl-8-methyl-4(1H)-quinolone], for which, in assay [1], the “enhancing rate … (in parentheses under EC20)” value is listed as -3.0%, the “enhancing rate … (in parentheses under EC100)” value is -11.5% and the “enhancing rate … (in parentheses under EC50)” value was -6.5%. Further, in assay [2], the EC20 came to 35.9 µM, the EC50 was 57.5 µM and the EC100 turned out to be 126 µM.

On to `COc1cc2c(=O)ccn(C)c2cc1OC` [Compound 13, 6,7-dimethoxy-1-methyl-4(1H)-quinolone], for which, in assay [1], the “enhancing rate … (in parentheses under EC20)” value was 0.1%, the “enhancing rate … (in parentheses under EC100)” value is 4.0% and the “enhancing rate … (in parentheses under EC50)” value stood at 1.2%. In addition, in assay [2], the EC20 was found to be 12.5 µM, the EC50 came to 88.1 µM and the EC100 was determined as 447 µM.

Turning to `COc1cccc2c(=O)c(C(=O)N3CCN(Cc4ccc5c(c4)OCO5)CC3)cn(C)c12` [Compound 107, 8-methoxy-1-methyl-3-{1-[4-(3,4-methylenedioxybenzyl)-piperazinyl]carbonyl}-4(1H)-quinolone], in assay [1], the “enhancing rate … (in parentheses under EC20)” value was -6.6% and the “enhancing rate … (in parentheses under EC50)” value was -19.5%. In addition, in assay [2], the EC20 was determined as 16.2 µM and the EC50 worked out at 100 µM.

In the case of `CCOC(=O)c1cn(CC)c2c(OC)cc([S+](C)[O-])cc2c1=O` (centres unmarked) [Compound 39, 3-ethoxycarbonyl-1-ethyl-8-methoxy-6-methylsulfinyl-4(1H)-quinolone], in assay [1], the “enhancing rate … (in parentheses under EC20)” value is recorded as -7.7% and the “enhancing rate … (in parentheses under EC50)” value is reported as -12.1%. In assay [2], the EC20 was determined as 13.5 µM and the EC50 came out at 67.6 µM.

As to `CCOC(=O)c1cn(CC)c2c(C)c(C)ccc2c1=O` [Compound 81, 7,8-dimethyl-3-ethoxycarbonyl-1-ethyl-4(1H)-quinolone], in assay [1], the “enhancing rate … (in parentheses under EC20)” value is on record as -10.5% and the “enhancing rate … (in parentheses under EC50)” value is -15.0%. Moreover, in assay [2], the EC20 was 35.5 µM and the EC50 is 57.5 µM.

For the molecule `CCOc1cc2c(cc1OC)c(=O)cc(-c1cccs1)n2CC` [Compound 102, 7-ethoxy-1-ethyl-6-methoxy-2-(2-thienyl)-4(1H)-quinolone], in assay [1], the “enhancing rate … (in parentheses under EC20)” value was -0.2% and the “enhancing rate … (in parentheses under EC50)” value is -5.2%. Also, in assay [2], the EC20 was found to be 2.51 µM and the EC50 was 40.3 µM.

In the case of `CCCCOc1cc2c(cc1OC)c(=O)cc(-c1ccco1)n2CC` [Compound 118, 7-n-butoxy-1-ethyl-2-(2-furyl)-6-methoxy-4(1H)-quinolone], in assay [1], the “enhancing rate … (in parentheses under EC20)” value is reported as -5.0% and the “enhancing rate … (in parentheses under EC50)” value is listed as -21.2%. Besides, in assay [2], the EC20 stood at 10 µM and the EC50 was found to be 49 µM.

In the case of `COc1ccc(Cn2c(C3CC3)cc(=O)c3cc(OC)c(OC)cc32)cc1` [Compound 104, 2-cyclopropyl-6,7-dimethoxy-1-(4-methoxybenzyl)-4(1H)-quinolone], in assay [1], the “enhancing rate … (in parentheses under EC20)” value was -3.5% and the “enhancing rate … (in parentheses under EC50)” value was -0.5%. Besides, in assay [2], the EC20 was 11.5 µM and the EC50 turned out to be 51.9 µM.

With `COc1ccc(Cn2ccc(=O)c3cc(OC)c(OC)cc32)cc1` [Compound 17, 6,7-dimethoxy-1-(4-methoxybenzyl)-4(1H)-quinolone], in assay [1], the “enhancing rate … (in parentheses under EC20)” value was -2.1% and the “enhancing rate … (in parentheses under EC50)” value was -4.0%. In assay [2], the EC20 stood at 4.47 µM and the EC50 is 30 µM.

For `CCn1ccc(=O)c2cc(/C=C/c3cc(OC)ccc3OC)ccc21` [Compound 111, 6-[2-trans-(2,5-dimethoxyphenyl)vinyl]-1-ethyl-4(1H)-quinolone], in assay [1], the “enhancing rate … (in parentheses under EC20)” value is recorded as -9.8% and the “enhancing rate … (in parentheses under EC50)” value was -27.0%. Moreover, in assay [2], the EC20 turned out to be 18.2 µM and the EC50 came to 97.7 µM.

For the molecule `C=CCn1c(-c2cccs2)cc(=O)c2cc(OC)c(OCC)cc21` [Compound 116, 1-allyl-7-ethoxy-6-methoxy-2-(2-thienyl)-4(1H)-quinolone], the “enhancing rate … (in parentheses under EC20)” value in assay [1] was -10.0%. Also, in assay [2], the EC20 came out at 15.3 µM and the EC50 turned out to be 60.3 µM.

Consider `CCOc1cc2c(=O)c(C(=O)O)cn(CC)c2cc1OC` [Compound 86, 3-carboxyl-6-ethoxy-1-ethyl-7-methoxy-4(1H)-quinolone], for which, in assay [1], the “enhancing rate … (in parentheses under EC20)” value is 1.5% and the “enhancing rate … (in parentheses under EC50)” value turned out to be 8.5%. In assay [2], the EC20 stood at 30 µM and the EC50 turned out to be 125 µM.

As to `CCn1ccc(=O)c2cc(C)ccc21` [Compound 59, 1-ethyl-6-methyl-4(1H)-quinolone], in assay [1], the “enhancing rate … (in parentheses under EC20)” value was -2.0%, the “enhancing rate … (in parentheses under EC100)” value is reported as -3.0% and the “enhancing rate … (in parentheses under EC50)” value is -2.7%. In assay [2], the EC20 was 12.3 µM, the EC50 amounted to 68.4 µM and the EC100 was found to be 279 µM.

Regarding `COC(=O)c1cn(C)c2cc(OC)c(OC)cc2c1=O` [Compound 32, 6,7-dimethoxy-3-methoxycarbonyl-1-methyl-4(1H)-quinolone], in assay [1], the “enhancing rate … (in parentheses under EC20)” value came to 0.1%, the “enhancing rate … (in parentheses under EC100)” value is given as 0.4% and the “enhancing rate … (in parentheses under EC50)” value is reported as 0.3%. In addition, in assay [2], the EC20 worked out at 40.7 µM, the EC50 was determined as 85.1 µM and the EC100 came out at 282 µM.

On to `COc1ccc2[nH]ccc(=O)c2c1O` [Compound 1, 5-hydroxy-6-methoxy-4(1H)-quinolone], for which, in assay [1], the “enhancing rate … (in parentheses under EC20)” value was 1.2%, the “enhancing rate … (in parentheses under EC100)” value is given as 6.8% and the “enhancing rate … (in parentheses under EC50)” value is given as 3.6%. In assay [2], the EC20 is 199 µM, the EC50 amounted to 398 µM and the EC100 was determined as 708 µM.

Regarding `CCOC(=O)c1cn(CC)c2c(OCC)cc(OC)cc2c1=O` [Compound 78, 8-ethoxy-3-ethoxycarbonyl-1-ethyl-6-methoxy-4(1H)-quinolone], in assay [1], the “enhancing rate … (in parentheses under EC20)” value is given as -6.2% and the “enhancing rate … (in parentheses under EC50)” value is given as -25.0%. Besides, in assay [2], the EC20 turned out to be 8.41 µM and the EC50 was determined as 75 µM.

Regarding `CCOc1cc2c(cc1OC)c(=O)ccn2CC` [Compound 58, 7-ethoxy-1-ethyl-6-methoxy-4(1H)-quinolone], in assay [1], the “enhancing rate … (in parentheses under EC20)” value worked out at 3.0% and the “enhancing rate … (in parentheses under EC50)” value came to 13.5%. Further, in assay [2], the EC20 turned out to be 8.13 µM and the EC50 was 47.3 µM.

On to `CCn1c(-c2cccs2)cc(=O)c2ccccc21` [Compound 97, 1-ethyl-2-(2-thienyl)-4(1H)-quinolone], for which, in assay [1], the “enhancing rate … (in parentheses under EC20)” value was -1.0% and the “enhancing rate … (in parentheses under EC50)” value is recorded as -3.0%. Besides, in assay [2], the EC20 was found to be 4.52 µM and the EC50 was 50.7 µM.

For the origin of these results see US5081121A, “4(1H)-quinolone derivatives” (priority 1988, dated 1992).
